# Bridge positions count the residues as written; N and C are the ends. Ends that are not written are not given here. Peptide text beside a SMILES is read from it.
# Tests used:
# Type in all cases: cell-based
# [1] = system: Staphylococcus aureus M3850
# From the text: (§1) All bacterial strains including S. aureus strains (M3842, M905-1, and M3850) ([22]), S. uberis strains (M100/11, BL246, and ALP8092) ([23]) and E. coli (9217/10) were isolated from bovine mastitis milk ([24]). All strains were maintained on Trypticase soy agar plates with 5% sheep blood (Becton Dickinson AG, Allschwil, Switzerland) and always freshly plated the day before the experiment. Bacterial colonies were suspended in 0.85% NaCl solution (Axon Lab AG, Baden, Switzerland) to reach an OD value of 0.5 (DensiCHECK PLUS, Biomérieux, Genève, Switzerland), corresponding to approximately 1–1.5 × 10^8 cell/ml. The minimum inhibitory concentration (MIC) of cathelicidins was determined by the broth microdilution method as previously described ([25]). Bacteria were further diluted to approximately 1 × 10^5 cells/ml in cation-adjusted Mueller-Hinton (MH) broth (Thermo Fisher Scientific). Several twofold peptide dilutions (40–0.3 µM) were prepared in a volume of 50 µl MH II broth (Becton Dickinson AG) in a round-bottom 96-well plate. Finally, 50 µl of 10^5 cells/ml were added to the peptide dilutions to reach a final concentration of 5 × 10^4 cells/ml.
# [2] = system: Streptococcus uberis M100/11
# From the text: as §1
# Escherichia coli 9217/10 = system: Escherichia coli 9217/10
# From the text: as §1
# [3] = system: Staphylococcus aureus M3842
# From the text: as §1
# [4] = system: Streptococcus uberis ALP8092
# From the text: as §1
# [5] = system: Staphylococcus aureus M905-1
# From the text: as §1
# [6] = system: Streptococcus uberis BL246
# From the text: as §1
# bovine neutrophils = test: ROS in neutrophils (CM-H2DCFDA flow cytometry); details: 100 ng/ml PMA for 10 min, then 1 h culture; three animals in duplicates
# Description: Bovine neutrophil granulocytes were isolated as previously described with a few adaptations ([20], [21]). Bovine blood sampling was performed in compliance with the Swiss animal protection law and approved by the animal welfare committee of the Canton of Bern, Switzerland, license number BE102/15. Briefly, 200 ml of blood was drawn from the jugular vein of cows at the Clinic for Ruminants (Vetsuisse Faculty, University of Bern, Switzerland) and was directly mixed with citrate-based anti-coagulant Alsever’s solution (1.55 mM of C6H12O6, 408 mM of Na3C6H5O7⋅2H2O, 1.078 mM of NaCl, and 43 mM of C6H8O7, pH 6.2). […] Neutrophils were recovered in the pellet, washed once with PBS/EDTA, counted in Trypan blue solution, and resuspended at 5 × 10^7 cells/ml in RPMI 1640 medium (Biochrom GmbH, Berlin, Germany). […] Aliquots of 5 × 10^6 neutrophils per tube were used to quantify ROS. […]
# Figure 6 Cathelicidins can be detected in the supernatants of phorbol myristate acetate (PMA)-activated neutrophils. […] (A) Forward and side scatter characteristics of neutrophils stimulated with PMA or left unstimulated were evaluated by flow cytometry (left). […] (B) Histogram overlay of CM-H2DCFDA fluorescence as an indicator of ROS formation. […]
# [7] = system: Mx1 in primary bovine turbinate epithelial cells (BT cells); test: Mx1 induction in BT cells (western blot), nucleic acid sensing; details: poly(I:C) alone, titration, 20 h, western blot (Figure S3)
# Description: Primary bovine turbinate epithelial cells (BT cells) were obtained as previously described ([26]) and the cultures maintained in DMEM supplemented with 10% FBS, non-essential amino acids (NEAA), neomycin/bacitracin, penicillin/streptomycin (stock solutions purchased from Biochrom), and GlutaMAX (Thermo Fisher Scientific). BT cells were plated in 24-well plates at 50,000 cells/well and incubated for 18 h at 37°C in 5% CO2. For induction of Mx, cathelicidins were mixed with 100 ng/ml of poly(I:C) in a final volume of 1 ml, incubated for 10 min at room temperature, and then added to the cells. Alternatively, different dilutions of neutrophil-derived supernatants were mixed with poly(I:C) at 100 ng/ml in complete medium (DMEM with 10% FBS, NEAA, neomycin/bacitracin, penicillin/streptomycin, and GlutaMAX). Positive controls for Mx1 induction included cell treatment with 100 ng/ml of bovine rIFN-α and 1 µg/ml of poly(I:C). Cultures were further incubated at 37°C for 20 h. […]
# Figure 5 Bovine myeloid antimicrobial peptide (BMAP)-27, sBAMP-27, BMAP-28, BMAP-34, and Bac1 promote nucleic acid sensing in primary epithelial cells. […] After 20 h incubation, Mx1 and β-actin were detected by western blot. […] After 20 h of culture, Mx1 and β-actin were detected by western blot. […]
compound,measurement,setting,value
CC[C@H](C)[C@@H]1NC(=O)[C@H](CCCNC(=N)N)NC(=O)[C@@H](NC(=O)[C@H](CC(C)C)NC(=O)[C@@H](N)CCCNC(=N)N)CSSC[C@@H](C(=O)N[C@@H](CCCNC(=N)N)C(=O)O)NC(=O)[C@H](C(C)C)NC(=O)[C@H](CCCNC(=N)N)NC(=O)[C@H]([C@@H](C)CC)NC(=O)[C@H](C(C)C)NC(=O)[C@H](C(C)C)NC1=O [Bac1] (H-RLCRIVVIRVCR-OH; disulfide 3-11),MIC,[1],≥20 ± 6.67 µM
same,MIC,[2],13.33 ± 5 µM
same,MIC,Escherichia coli 9217/10,>20 µM
same,MIC,[3],>20 µM
same,MIC,[4],≥20 ± 10 µM
same,MIC,[5],>20 µM
same,MIC,[6],20.00 ± 0 µM
"CCCCCCCCCCCCCC(=O)O[C@@H]1[C@@H](C)[C@@]2(O)[C@@H](C=C(CO)C[C@]3(O)C(=O)C(C)=C[C@@H]23)[C@@H]2C(C)(C)[C@]12OC(C)=O [PMA, phorbol myristate acetate]",fluorescence intensity of CM-H2DCFDA (ROS indicator) compared to unstimulated neutrophils,bovine neutrophils,significantly higher
AGLFRRLRDSIRRGQQKILEKARRIGERIKDIFRG [BMAP-34],MIC,[1],10.00 ± 0 µM
same,MIC,[2],5.00 ± 0 µM
same,MIC,Escherichia coli 9217/10,5.00 ± 0 µM
same,MIC,[3],12.22 ± 4.41 µM
same,MIC,[4],5.00 ± 0 µM
same,MIC,[5],14.44 ± 5.27 µM
same,MIC,[6],4.17 ± 1.25 µM
GGLRSLGRKILRAWKKYGPIIVPIIRIG [BMAP-28],MIC,[1],17.78 ± 4.41 µM
same,MIC,[2],10.00 ± 0 µM
same,MIC,Escherichia coli 9217/10,10.00 ± 0 µM
same,MIC,[3],13.33 ± 5 µM
same,MIC,[4],10.00 ± 0 µM
same,MIC,[5],14.44 ± 5.27 µM
same,MIC,[6],10.00 ± 0 µM
GLPKLHFRRKKGKLVSFPLKFKFKIRL [sBMAP-27],MIC,[1],17.78 ± 4.41 µM
same,MIC,[2],5.00 ± 0 µM
same,MIC,Escherichia coli 9217/10,10.00 ± 0 µM
same,MIC,[3],≥20 ± 10 µM
same,MIC,[4],8.33 ± 2.5 µM
same,MIC,[5],20.00 ± 0 µM
same,MIC,[6],5.56 ± 1.67 µM
GRFKRFRKKFKKLFKKLSPVIPLLHLG [BMAP-27],MIC,[1],7.22 ± 2.64 µM
same,MIC,[2],2.78 ± 0.83 µM
same,MIC,Escherichia coli 9217/10,2.50 ± 0 µM
same,MIC,[3],5.00 ± 0 µM
same,MIC,[4],4.72 ± 0.83 µM
same,MIC,[5],8.33 ± 2.5 µM
same,MIC,[6],4.17 ± 1.25 µM
Polyinosinic–polycytidylic acid [poly(I:C)],concentration of poly(I:C) below which induction of Mx1 was not detectable,[7],156 ng/mL
RFRPPIRRPPIRPPFYPPFRPPIRPPIFPPIRPPFRPPLGPFP [Bac5],MIC,[1],>20 µM
same,MIC,[2],2.78 ± 0.83 µM
same,MIC,Escherichia coli 9217/10,>20 µM
same,MIC,[3],>20 µM
same,MIC,[4],20.00 ± 0 µM
same,MIC,[5],>20 µM
same,MIC,[6],6.11 ± 2.2 µM

# Reference: article PMC5285380, “Differential Ability of Bovine Antimicrobial Cathelicidins to Mediate Nucleic Acid Sensing by Epithelial Cells” (Frontiers in Immunology, 2017)
